The record followed here is patent publication US4980349A, “Sulphonamides derived from diarylmethanes, the processes for preparing them and pharmaceutical compositions containing them” (SANOFI, priority 1986, dated 1990).

Entries after “also recorded” stand apart in the source; their conditions may differ. Where two headings read alike, the source gives them in different places.

In experiment [1] the test system is pain threshold of brewer's yeast inflamed rat hind foot. The experiment in a line: Randall and Sellitto's test (analgesic activity). Format: in vivo. To be noted: for change in vivo at 25 mg/kg: 25 mg/kg oral; for change in vivo at 25 mg/kg / change in vivo at 50 mg/kg / change in vivo at 100 mg/kg: read-out: percentage increase in the mean pain threshold; for change in vivo at 50 mg/kg: 50 mg/kg oral; for change in vivo at 100 mg/kg: 100 mg/kg oral; for ED50: po, analgesia, read-out: 50% active dose. An outline of the steps: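 Rats had 0.1 ml 20% brewer's yeast suspension injected under the hind-foot plantar aponeurosis; compounds dosed orally by stomach tube 1 h before yeast. Pain threshold was the pressure eliciting foot withdrawal, read at the 4–6 h plateau; result is % increase in mean threshold versus untreated controls, 10 rats per group.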

In another experiment the test system is thromboxane synthetase. The experiment in a line: TXB2 production in human platelet suspension (thromboxane synthetase). Type of experiment: cell-based. Conditions: human platelets, arachidonic acid 5 μg/ml, 37° C., read-out: IC50, inhibition of the production of TXB2. As for the experimental part: The platelets are incubated with arachidonic acid (5 μg/ml) in the presence of increasing doses of test products (10^-6l M to 5×10^-5 M). Platelets stimulated by arachidonic acid (AA) manufacture a large amount of thromboxane A2 (TXA2), which can be measured radioimmunologically in the form of a stable metabolite TXB2.
The assay of the amount of TXB2 in the medium is performed after a 1- to 15- minute incubation at 37° C., the measurements being made in comparison with a control suspension which has not been incubated with the test products.
Results: These are expressed as IC50, that is to say as the concentration of the test product which permits 50% inhibition of the production of TXB2.

The test system of experiment [2] is foreign-body (sponge) granuloma in rats. In words: Experimental granuloma induced by foreign body, histological study. Format: in vivo, Wistar rats. To be noted: for histological study of the granuloma: 8 days, Table XI; for histological study of the granuloma (inflammatory connective / granulation tissue): second experiment, day 8, Table XIa.
The test system of experiment [3] is biosynthesis of leukotrienes B4 (LTB4), human polymorphonuclear leukocytes. The experiment in a line: Biosynthesis of LTB4, isomers and oxidized metabolites in human polymorphonuclear leukocytes. Type of experiment: cell-based. To be noted: Leukocyte. An outline of the steps:
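Human polymorphonuclear leukocytes (5×10^6, used within 6 h of blood draw) preincubated 10 min at 37° C. with test product at 40 μM in DMSO, stimulated with 10 μM ionophore A 23187 in PBS pH 7.4. LTB4, its isomers and oxidized metabolites quantified by HPLC at 269 nm against PGB2 internal standard, as % inhibition or % increase.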

In experiment [4] the test system is foreign-body (sponge) granuloma in rats. In words: Experimental granuloma induced by foreign body, weight of the granulomas. Format: in vivo, Wistar rats. Conditions: Rattus norvegicus, po, 240 h, 10 days after implantation, Table XIb, read-out: decrease in the weight of the granulomas. As for the experimental part:
This test consists in studying the subacute cellular phase which is developed in the 8 days which follow the implantation of a foreign body, a sponge of non-resorbable plastic, in the dorsal subcutaneous connective tissue in rats.
The animals used are Wistar rats weighing 120-140 g and of the same origin, maintained under the same conditions of housing throughout the treatment (8 days).
The compounds of the invention are administered orally, in a gum suspension, in the morning in a fasted state, using an oesophageal tube.
In this experiment, on the one hand a histological study of the granulomas is performed by sampling on day 8 (results recorded in Table XIa), and on the other hand a study of the weight of the granulomas was performed 10 days after the implantation (results recorded in Table XIb).

Experiment [5] concerns rat hind foot kaolin-induced arthritis. In words: Kaolin-induced arthritis test, second experiment, acute phase (volume of the foot at the 8th hour). Conditions: po, 8 h, Table IXa; for change in vivo at 25 mg/kg / change in vivo at 50 mg/kg / change in vivo at 100 mg/kg: 8th hour, read-out: percentage significant decrease in the volume of the treated foot; for ED50: foot volume, read-out: 50% active dose. Format: in vivo. As for the experimental part: The […] of 0.05 ml of a sterile 10% strength suspension of kaolin into the metatarsal flexor sheath of the hind foot of a rat initially induces an oedematous reaction. An inflammatory arthritis then forms.
The early oedematous reaction appears from the first hour, and reaches its maximum between the fourth hour and the sixth hour. This is the manifestation of interest. The assessment of the volume of the foot enables the action of substances on the oedematous reaction to be studied. The measurements are carried out using a Giono and Chevilard plethysmometer.
The test products are administered orally (stomach tube) one hour before the injection of the kaolin.
In a second experiment, a more elaborate study was performed in order to ascertain the effect of the products, on the one hand on the acute phase of the inflammatory reaction (measured by the volume of the foot at the 8th hour), and on the other hand on the chronic phase (activity measured by the weight of the foot at the 12th hour).
As in the previous experiment, ketoprofen was used as the comparative product:
The results are expressed as a percentage significant decrease in the volume of the treated foot compared with the controls.

[6] abbreviates: first experiment, read-out: Isomers of LTB4: percentage inhibition (+ : percentage increase in the production).
[7] abbreviates: first experiment, read-out: LTB4: percentage inhibition (+ : percentage increase in the production).
Setting [8] is: first experiment, read-out: Oxidized metabolites of LTB4: percentage inhibition (+ : percentage increase in the production).
The mark [9] stands for this setting: second experiment, read-out: Percentage inhibition of LTB4 formation.

As usually defined, the IC50 is the midpoint of a concentration-inhibition curve. The inhibition is the relative decrease from the control value, in per cent. Take `O=C(O)CCCCCCCCCCNS(=O)(=O)c1ccc(Cl)cc1C(=O)c1ccccc1` [Compound 1572, 11-(2-benzoyl-4-chlorobenzenesulphonamido)undecanoic acid]: in experiment [1] (first experiment, Table XII), the change in vivo at 25 mg/kg was 18%. For the same compound, the change in vivo at 50 mg/kg in experiment [1] (first experiment, Table XII) amounted to 30%. For the same compound, the change in vivo at 100 mg/kg in experiment [1] (first experiment, Table XII) was 55%. Moreover, the IC50 in the experiment on thromboxane synthetase came to 12 µM. For the same compound, the “histological study of the granuloma” value is “anti-inflammatory activity is exhibited” in experiment [2] (50 mg/kg oral) and “distinct” in experiment [2] (100 mg/kg oral). Further, the inhibition at 40 µM came to 100% in experiment [3] (setting [6]), 84% in experiment [3] (setting [7]) and 90% in experiment [3] (setting [8]).

In the case of `O=C(O)CCCCCCCCCCNS(=O)(=O)c1ccc(Cl)cc1C(=O)c1ccccc1Cl` [Compound 1574, 11-[2-(2-chlorobenzoyl)-4-chlorobenzenesulphonamido]undecanoic acid], the change in vivo at 25 mg/kg in experiment [1] (second experiment, Table XIIa) is 45%; in experiment [4], -48%; in experiment [5], -60 ± 6%. Further, the change in vivo at 50 mg/kg in experiment [1] (second experiment, Table XIIa) is 50%; in experiment [4], -50%; in experiment [5], -65 ± 6%. The change in vivo at 100 mg/kg in experiment [1] (second experiment, Table XIIa) is 50%; in experiment [4] it was -55%; in experiment [5] it was -68 ± 5%. For the same compound, the ED50 came out at 50 mg/kg in experiment [1] (second experiment, Table XIIa) and 25 mg/kg in experiment [5]. The IC50 in the experiment with thromboxane synthetase was found to be 8 µM. In experiment [2], the “histological study of the granuloma (inflammatory connective / granulation tissue)” value is on record as “very distinct rarefaction”. For the same compound, the inhibition at 40 µM in experiment [3] (setting [6]) was found to be 100%; in experiment [3] (setting [7]) it was 95%; in experiment [3] (setting [8]) it was 100%; in experiment [3] (setting [9]), 95%.

For `O=C(O)CCCCCCCCCCCNS(=O)(=O)c1ccc(Cl)c(C(=O)c2ccccc2)c1` [Compound 1736, 12-(3-benzoyl-4-chlorobenzenesulphonamido)dodecanoic acid], in experiment [1] (second experiment, Table XIIa), the change in vivo at 25 mg/kg was 52%, the change in vivo at 50 mg/kg turned out to be 58%, the change in vivo at 100 mg/kg amounted to 60% and the ED50 was determined as 25 mg/kg. The IC50 with thromboxane synthetase worked out at 6.2 µM. In experiment [2], the “histological study of the granuloma (inflammatory connective / granulation tissue)” value was “Very distinct slowing in the formation”. For the same compound, the inhibition at 40 µM in experiment [3] (setting [9]) worked out at 100%. In experiment [4], the change in vivo at 25 mg/kg is -48%, the change in vivo at 50 mg/kg was -52% and the change in vivo at 100 mg/kg was -55%. Besides, in experiment [5], the change in vivo at 50 mg/kg was -50 ± 5%, the change in vivo at 100 mg/kg is -55 ± 5% and the ED50 stood at 50 mg/kg.

For `O=C(O)CCCCCCCCCCNS(=O)(=O)c1ccc(Cl)cc1C(O)c1ccccc1Cl` (stereo not drawn) [Compound 1796], in experiment [1] (second experiment, Table XIIa), the change in vivo at 25 mg/kg is 50%, the change in vivo at 50 mg/kg was 55%, the change in vivo at 100 mg/kg was found to be 58% and the ED50 was found to be 25 mg/kg. The IC50 in the experiment with thromboxane synthetase was found to be 7.8 µM. Further, the “histological study of the granuloma (inflammatory connective / granulation tissue)” value in experiment [2] was “only slightly inflammatory”. Moreover, the inhibition at 40 µM in experiment [3] (setting [9]) was 100%. In experiment [4], the change in vivo at 25 mg/kg is -50%, the change in vivo at 50 mg/kg is -55% and the change in vivo at 100 mg/kg is -60%. Moreover, in experiment [5], the change in vivo at 25 mg/kg was -50 ± 5%, the change in vivo at 50 mg/kg is -55 ± 5%, the change in vivo at 100 mg/kg was -60 ± 5% and the ED50 was 25 mg/kg.

Consider `O=C(O)CCCCCCCCCCNS(=O)(=O)c1ccc(Cl)cc1Cc1ccccc1Cl` [Compound 1797], for which, in experiment [1] (second experiment, Table XIIa), the change in vivo at 25 mg/kg worked out at 50%, the change in vivo at 50 mg/kg was found to be 55% and the change in vivo at 100 mg/kg is 58%. For the same compound, the IC50 in the experiment on thromboxane synthetase was determined as 5 µM. In addition, the “histological study of the granuloma (inflammatory connective / granulation tissue)” value in experiment [2] is recorded as “Granuloma poorly developed; also recorded: slightly inflammatory”. Moreover, the inhibition at 40 µM in experiment [3] (setting [9]) turned out to be 100%. In experiment [4], the change in vivo at 25 mg/kg was -50%, the change in vivo at 50 mg/kg was -55% and the change in vivo at 100 mg/kg is -60%. Besides, in experiment [5], the change in vivo at 25 mg/kg is -50 ± 5%, the change in vivo at 50 mg/kg was -55 ± 5%, the change in vivo at 100 mg/kg is -60 ± 5% and the ED50 came to 25 mg/kg.
